Results on 28 compounds are retold here after article PMC13095408, “DBeQ derivative targets vacuolar protein sorting 4 functions in cancer cells and suppresses tumor growth in mice” (The Journal of Pharmacology and Experimental Therapeutics, 2025).

For assay [1], the system named is GFP-CHMP4B-expressing U2OS cells. The experiment in a line: GFP-CHMP4B accumulation cell-based assay (high-content microscopy). As to the method:
Plates were then scanned using the 20× objective for 1 hour with ≥100 cells/well across 6 fields/well. […] For all other assays, the cells were cultured overnight in black glass-bottom 96-well plates (Cellvis; P96-1.5H-N) then stained, rinsed, and treated with SM containing the indicated compounds (0.1% DMSO or 0.1% DMSO/0.1% ethanol [vehicle] final). Plates were scanned using the 20× NA .70 objective at the indicated intervals with ≥ 300 cells/well across 3 fields/well. […]

Assay [2] addresses T1, VPS4B (Homo sapiens, UniProt O75351).
T1 sequence (O75351 1-444): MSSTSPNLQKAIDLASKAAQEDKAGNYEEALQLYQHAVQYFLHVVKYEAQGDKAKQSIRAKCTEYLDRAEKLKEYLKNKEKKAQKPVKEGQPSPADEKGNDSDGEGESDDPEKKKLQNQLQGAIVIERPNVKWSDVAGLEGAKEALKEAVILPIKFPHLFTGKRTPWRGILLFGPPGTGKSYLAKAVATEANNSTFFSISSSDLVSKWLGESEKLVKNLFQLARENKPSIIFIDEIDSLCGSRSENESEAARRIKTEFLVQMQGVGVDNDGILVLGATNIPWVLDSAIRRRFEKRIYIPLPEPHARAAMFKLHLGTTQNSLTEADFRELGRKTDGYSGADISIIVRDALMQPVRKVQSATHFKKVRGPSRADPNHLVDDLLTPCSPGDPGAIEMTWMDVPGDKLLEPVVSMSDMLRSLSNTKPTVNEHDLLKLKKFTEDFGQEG
Kind of assay: VPS4B ATPase activity, EnzChek Phosphate assay. Type of assay: biochemical. Also noted: His tag (pET28a vector-encoded) (N); made in house; host or cells: Escherichia coli BL21(DE3). As to the method: VPS4B and VCP ATPase activities were measured using the EnzChek Phosphate assay for the quantification of released phosphate. Assay buffers were based on literature precedents ([Cupido et al, 2019], [2021]) as follows: VPS4B buffer (20 mM HEPES-KOH, pH 7.4, 25 mM KOAc, 2 mM MgCl2, 5 mM (NH4)2SO4, 0.5 mM CaCl2, 2.5 mM DTT, 0.1 mg/mL BSA, 0.005% v/v Triton X-100), VCP buffer (20 mM HEPES-NaOH, pH 7.4, 20 mM NaCl, 10 mM MgCl2, 5 mM (NH4)2SO4, 0.5 mM CaCl2, 2.5 mM DTT, 0.1 mg/mL BSA, 0.005% v/v Triton X-100). In black clear-bottom 384-well plates, 22.5 μL of 5% DMSO or 40× test compounds diluted in the respective assay buffer was added to each well. ATPases were diluted to 1 μM in the respective buffers containing 2× EnzChek Phosphate assay coupling reagents of 400 μM MESG and 2 U of PNP, then 25 μL was added to each well. Plates were mixed at 1000 rpm for 30 minutes at RT while being protected from light. The reaction was initiated by adding 2.5 μL of 20 mM MgATP or water followed by mixing at 1200 rpm for 30 seconds at RT. Plates were measured at 360 nm using a CLARIOstar plate reader (BMG LABTECH) for 20 minutes at 37 °C. ATPase activity was calculated as the amount of phosphate released over a 5-minute interval under linear initial velocity conditions. The remaining ATPase activity was calculated by normalizing compound-treated activity values to the DMSO control. IC50 was calculated by fitting normalized values to a sigmoidal dose-response curve with Hill slope = −1 using Graph Pad Prism 10.0.
To identify VPS4i, we developed enzyme- and cell-based VPS4 functional assays to serve as VPS4i-screening platforms. For the enzyme-based assay, we used the colorimetric EnzChek Phosphate assay that detects free phosphate with the advantage of continuous measurement of ATP hydrolysis over time. […] Due to the high sequence and structural similarity of AAA-ATPases, we also established a VCP ATPase assay to evaluate hit selectivity. […] For the cell-based assay, our approach was based on how VPS4 inhibition causes the accumulation of ESCRT-III ([Babst et al, 1998]; [Katoh et al, 2003]). We used an N-terminal GFP-tagged CHMP4B reporter system because it is the most abundant ESCRT-III subunit ([Katoh et al, 2004]; [Teis et al, 2008]). Our aim was to test compounds under short-term serum and amino acid starvation to stimulate ESCRT activity for easier detection of inhibitors ([Takahashi et al, 2018], [2019]). […] Overall, we established 2 systems for VPS4i screening, a VPS4B ATPase activity assay and a GFP-CHMP4B accumulation cell-based assay.

The mark [3] stands for this setting: screened at 1 µM, mean ± S.D., Supplemental Table 2.
Setting [4] is: screened at 5 µM, mean ± S.D., Supplemental Table 2.
Where [5] appears, read: screened at 1 μM, starvation media, 1 hour, foci intensity per cell normalized to 4-107, mean ± SD, Table 1.
[6] abbreviates: remaining ATPase activity, screened at 5 μM, mean ± SD, Table 1.

For `COc1cccc2c(NCc3ccccc3)nc(-n3ccc4ccc(C(=O)O)cc43)nc12` [Compound 5-39-iv], the “GFP-CHMP4B (% 4-107)” value in assay [1] (setting [3]) came out at 1.59 ± 0.93 % 4-107. For the same compound, the “VPS4B ATPase (% DMSO)” value in assay [2] (setting [4]) stood at 93.04 ± 0.65 % DMSO.
The like results for `COc1cccc2c(NCCc3ccccc3)nc(NCCc3ccccc3)nc12` [Compound 5-03] were, in that order, 2.31 ± 1.75 % 4-107 and 30.96 ± 1.37 % DMSO.
The like results for `COc1cccc2c(NCCc3ccccc3)nc(NCc3nc4ccccc4s3)nc12` [Compound 5-107] were, in that order, 0.24 ± 0.08 % 4-107 and 75.99 ± 2.63 % DMSO.
The like results for `COc1cccc2c(NCc3ccccc3)nc(NCCc3ccccc3)nc12` [Compound 5-75] were, in that order, 2.25 ± 1.07 % 4-107 and 45.53 ± 1.40 % DMSO.
For the compound `COc1cccc2c(NCc3ccccc3)nc(-n3ccc4c(C(N)=O)cccc43)nc12` [Compound 5-139], the “GFP-CHMP4B (% 4-107)” value in assay [1] (setting [3]) worked out at 1.75 ± 0.11 % 4-107. In addition, in assay [2] (setting [4]), the “VPS4B ATPase (% DMSO)” value was found to be 90.05 ± 5.58 % DMSO.
The like results for `COc1cccc2c(NCc3ccccc3)nc(N[C@@H](C)c3ccc4ccccc4c3)nc12` [Compound 5-93] were, in that order, 5.34 ± 4.29 % 4-107 and 58.00 ± 2.01 % DMSO.
The like results for `COc1cccc2c(NCCc3cccc(S(N)(=O)=O)c3)nc(NCCc3ccc(S(N)(=O)=O)cc3)nc12` [Compound 5-15-iv] were, in that order, 3.22 ± 0.67 % 4-107 and 77.37 ± 4.37 % DMSO.
In the case of `COc1cccc2c(NCc3ccccc3)nc(NCc3nc4ccccc4s3)nc12` [Compound 5-105], the “GFP-CHMP4B (% 4-107)” value in assay [1] (setting [3]) is 1.30 ± 1.20 % 4-107. For the same compound, in assay [2] (setting [4]), the “VPS4B ATPase (% DMSO)” value amounted to 56.25 ± 2.23 % DMSO.
The like results for `COc1cccc2c(NCCc3ccccc3)nc(-n3ccc4cncnc43)nc12` [Compound 5-59] were, in that order, 2.84 ± 0.06 % 4-107 and 97.54 ± 1.15 % DMSO.
Take `COc1cccc2c(NCc3ccc(Cl)cc3)nc(NCc3ccc(Cl)cc3)nc12` [Compound 5-07]: the “GFP-CHMP4B (% 4-107)” value in assay [1] (setting [3]) is 14.56 ± 10.71 % 4-107. Moreover, the “VPS4B ATPase (% DMSO)” value in assay [2] (setting [4]) is recorded as 28.5 ± 0.04 % DMSO.
The like results for `COc1cccc2c(NCc3ccccc3)nc(N[C@@H](C)c3cccc4ccccc34)nc12` [Compound 5-101] were, in that order, 2.43 ± 1.02 % 4-107 and 49.27 ± 0.19 % DMSO.
`COc1cccc2c(NCc3ccccc3)nc(NCc3cccc(C(F)(F)F)c3)nc12` [Compound 15]: the “GFP-CHMP4B (% 4-107)” value in assay [1] (setting [3]) and in assay [1] (setting [5]) was 25.61 ± 20.09 % 4-107 throughout. For the same compound, the “VPS4B ATPase (% DMSO)” value in assay [2] (setting [6]) and in assay [2] (setting [4]) was 28.57 ± 1.13 % DMSO in each case.
As for `COC(=O)c1cccc(CNc2nc(NCc3cccc(C(=O)OC)c3)c3cccc(OC)c3n2)c1` [Compound 4-131-iii], the “GFP-CHMP4B (% 4-107)” value in assay [1] (setting [3]) is recorded as 11.94 ± 9.74 % 4-107. Moreover, in assay [2] (setting [4]), the “VPS4B ATPase (% DMSO)” value came to 34.70 ± 0.70 % DMSO.
The like results for `COc1cccc2c(NCc3ccccc3)nc(N[C@H](C)c3ccc4ccccc4c3)nc12` [Compound 5-95] were, in that order, 2.43 ± 1.04 % 4-107 and 42.87 ± 1.98 % DMSO.
With `COc1ccc2nc(NCc3ccccc3)nc(NCc3ccccc3)c2c1` [Compound 7], the “GFP-CHMP4B (% 4-107)” value in assay [1] (setting [3]) and in assay [1] (setting [5]) was 8.92 ± 2.87 % 4-107 in each case. The “VPS4B ATPase (% DMSO)” value in assay [2] (setting [6]) and in assay [2] (setting [4]) was 43.86 ± 1.20 % DMSO throughout.
With `COC(=O)c1cccc(CNc2nc(NCc3ccccc3)c3cccc(OC)c3n2)c1` [Compound 14], the “GFP-CHMP4B (% 4-107)” value in assay [1] (setting [3]) and in assay [1] (setting [5]) was 13.39 ± 9.03 % 4-107 throughout. In addition, the “VPS4B ATPase (% DMSO)” value in assay [2] (setting [6]) and in assay [2] (setting [4]) was 42.10 ± 0.26 % DMSO throughout.
For `COc1cccc2c(NCCc3ccccc3)nc(N[C@@H](C)c3ccc4ccccc4c3)nc12` [Compound 5-97], the “GFP-CHMP4B (% 4-107)” value in assay [1] (setting [3]) was 1.82 ± 0.02 % 4-107. Moreover, the “VPS4B ATPase (% DMSO)” value in assay [2] (setting [4]) was 49.73 ± 0.04 % DMSO.
The like results for `COC(=O)c1ccc2ccn(-c3nc(NCCc4ccc(S(N)(=O)=O)cc4)c4cccc(OC)c4n3)c2c1` [Compound 5-43-iii] were, in that order, 3.01 ± 1.98 % 4-107 and 94.98 ± 0.53 % DMSO.
The like results for `COc1cccc2c(NCCc3ccccc3)nc(N[C@H](C)c3ccc4ccccc4c3)nc12` [Compound 5-99] were, in that order, 3.40 ± 1.02 % 4-107 and 45.77 ± 2.14 % DMSO.
Turning to `COc1cccc2c(NCc3ccccc3)nc(Cl)nc12` [Compound 3], the “GFP-CHMP4B (% 4-107)” value was 3.86 ± 2.41 % 4-107 in assay [1] (screened at 1 µM, mean ± S.D., Supplemental Table 2, listed as 5-125) and 3.86 ± 2.41 % 4-107 in assay [1] (setting [5]). For the same compound, the “VPS4B ATPase (% DMSO)” value in assay [2] (setting [6]) and in assay [2] (setting [4]) was 71.88 ± 3.41 % DMSO each time.
Take `COc1cccc2c(NCc3ccccc3)nc(Nc3ccc4ncsc4c3)nc12` [Compound 5-69]: in assay [1] (setting [3]), the “GFP-CHMP4B (% 4-107)” value is 2.10 ± 1.22 % 4-107. In assay [2] (setting [4]), the “VPS4B ATPase (% DMSO)” value is 51.27 ± 1.54 % DMSO.
The like results for `COc1cccc2c(NCc3ccccc3)nc(N[C@H](C)c3cccc4ccccc34)nc12` [Compound 5-103] were, in that order, 4.36 ± 1.56 % 4-107 and 45.60 ± 2.79 % DMSO.
The like results for `COc1cccc2c(NCc3ccccc3)nc(NCc3cccc(C(=O)O)c3)nc12` [Compound 5-35-iv] were, in that order, 10.92 ± 9.21 % 4-107 and 88.20 ± 5.24 % DMSO.
`COc1cccc2c(NCc3ccccc3)nc(NC(c3ccccc3)c3ccccc3)nc12` [Compound 7-23]: in assay [1] (setting [3]), the “GFP-CHMP4B (% 4-107)” value is recorded as 23.20 ± 6.42 % 4-107. Besides, the “VPS4B ATPase (% DMSO)” value in assay [2] (setting [4]) is 37.77 ± 2.37 % DMSO.
The like results for `COc1cccc2c(NCc3ccccc3)nc(N[C@@H](C)c3ccccc3)nc12` [Compound 5-81] were, in that order, 7.65 ± 7.10 % 4-107 and 43.91 ± 0.05 % DMSO.
The like results for `COc1ncnc2c1ccn2-c1nc(NCc2ccc(C(F)(F)F)cc2)c2cccc(OC)c2n1` [Compound 5-57] were, in that order, 2.44 ± 0.81 % 4-107 and 93.98 ± 3.83 % DMSO.
The like results for `COC(=O)c1ccc2c(ccn2-c2nc(NCc3ccccc3)c3cccc(OC)c3n2)c1` [Compound 5-41-iii] were, in that order, 2.82 ± 1.33 % 4-107 and 80.70 ± 2.02 % DMSO.
On to `COc1cccc2c(NCc3ccccc3)nc(-n3ccc4c(C(=O)O)cccc43)nc12` [Compound 5-137], for which, in assay [1] (setting [3]), the “GFP-CHMP4B (% 4-107)” value came out at 2.21 ± 0.41 % 4-107. For the same compound, the “VPS4B ATPase (% DMSO)” value in assay [2] (setting [4]) was 96.09 ± 2.11 % DMSO.
